Where two headings read alike, the source gives them in different places. Marks after values point to notes of the source that are not given here.

Consider three molecules from paper PMC10531311, “Anti-Inflammatory Activities of 8-Benzylaminoxanthines Showing High Adenosine A2A and Dual A1/A2A Receptor Affinity” (International Journal of Molecular Sciences, 2023).

In one data set the target is T1, human adenosine A1R (Homo sapiens, UniProt P30542).
T1 construct: expressed in transfected cells; host or cells: CHO cells
T1 sequence (P30542 1-326): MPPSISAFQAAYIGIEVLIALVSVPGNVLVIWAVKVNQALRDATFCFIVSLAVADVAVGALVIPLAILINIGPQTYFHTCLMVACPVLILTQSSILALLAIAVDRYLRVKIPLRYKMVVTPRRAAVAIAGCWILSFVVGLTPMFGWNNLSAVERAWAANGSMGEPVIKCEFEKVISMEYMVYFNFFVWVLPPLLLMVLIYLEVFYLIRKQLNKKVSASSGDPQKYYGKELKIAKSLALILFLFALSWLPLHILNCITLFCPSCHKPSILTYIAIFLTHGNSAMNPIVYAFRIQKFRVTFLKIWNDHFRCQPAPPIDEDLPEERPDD
Kind of data set: Radioligand binding at human adenosine A1 receptor vs. [3H]CCPA. As to conditions: human recombinant receptor in CHO cells; read-out: A1R vs. [³H]CCPA Ki ± SEM.

Data set [1] can be described thus: PAMPA blood brain barrier permeability. The class given is in vitro ADME. Here is the method: The ability of compounds, especially those intended to act in the CNS, to penetrate the blood-brain barrier (BBB) is an important property to consider in the initial stages of drug candidate screening. The PAMPA assay is a commonly used test to assess the passive permeation of the BBB [17]. In our study, caffeine was used as a highly permeable compound. […] After 5 h of incubation at room temperature, the results were analyzed by LC-MS, and the permeability coefficients (Pe) were calculated.
For permeability evaluation, a PAMPA Gentest™ pre-coated […] system, provided by Corning (Tewksbury, MA, USA), was used. The precise procedure was previously described. The permeability coefficient Pe was calculated based on the given equations. Concentrations of the tested compounds in the apical and basolateral wells were determined by LC/MS analysis using an internal standard.
Background: In PAMPA a lipid-coated filter parts donor from acceptor wells.

A further data set has as its system formalin test in mice. As to the kind of experiment: Formalin test. The format is in vivo, albino Swiss mice. Here is the method:
Injection of formalin into the dorsal surface of the hind paw of a mouse produces a biphasic nocifensive behavioral response; i.e., licking, biting, flinching or lifting of the injected paw. The acute (neurogenic) nociceptive phase lasts for the first 5 min and is followed by a period of little activity for the next 10 min. The first phase of the test is directly associated with nociceptor stimulation and the development of neurogenic inflammation. The second (late) phase occurs between 15 and 30 min after formalin injection. The second phase depends on peripheral inflammation and the central sensitization of pain. Since this phase reflects the activation of inflammatory processes, the compounds active in this phase of the experiment also have an anti-inflammatory effect. The tested compounds 19, 22 and 24, were investigated in three doses: 10, 20 and 40 mg/kg bw. ASA (acetylsalicylic acid) was used as a reference compound and administered in doses of 50, 100 and 200 mg/kg. […] The strongest effect in this assay was produced by 24. […] In addition, this anti-nociceptive and anti-inflammatory effect was approximately 13.8 times greater than that observed for the reference compound (ASA). […] ASA also attenuated statistically significant pain responses in the late phases of the formalin test. […] The in vivo experiments were carried out on male albino Swiss mice weighing 18–26 g and male Wistar rats weighing 150–180 g. The animals were housed in constant temperature facilities exposed to a 12:12 light-dark cycle and maintained on a standard pellet diet and tap water given ad libitum. The control and experimental groups consisted of 6–8 animals each. The investigated compounds were intraperitoneally (ip) administered in the form of a suspension in 0.5% methylcellulose. Control animals received the equivalent volume of solvent. All procedures were conducted according to the guidelines of ICLAS (International Council on Laboratory Animals Science) and were approved by the Local Ethics Committee of the Jagiellonian University in Kraków. The mice were pretreated with the test compound or the vehicle and were allowed to acclimate in Plexiglas observation chambers (20 × 30 × 15 cm) for 30 min before the test. Then, 20 μL of a 5% formalin solution was intraplantarly injected into the right hind paw using a 26-gauge needle. Immediately after formalin injection, the animals were individually placed into glass beakers and were observed during the next 30 min. Time (in seconds) spent on licking or biting the injected paw in selected intervals, 0–5, 15–20, 20–25 and 25–30 min, was measured in each experimental group and was an indicator of nociceptive behavior [41]. The ED50 values and their confidence limits were estimated by the method of Litchfield and Wilcoxon.

Where [2] appears, read: 100 μM in PBS, 5 h, room temperature, triplicate.
The mark [3] stands for this setting: 100 μM in PBS, 5 h, room temperature, triplicate, read-out: Pe ± SD.

On to `C#CCn1c(=O)c2c(nc(NCc3cccc(Br)c3)n2C)n(C)c1=O` [compound 24, 8-((3-Bromobenzyl)amino)-3,7-dimethyl-1-(prop-2-yn-1-yl)-3,7-dihydro-1H-purine-2,6-dione], for which, at human adenosine A1R, the Ki (as a rule, the equilibrium dissociation constant of an inhibitor or competing ligand from its target) was determined as 72 ± 8 nM. In addition, the “Drug Retention” value in data set [1] was found to be 93.30%. Besides, the “Pe ± SD” value in data set [1] (setting [2]) is 0.89 10^−6 cm/s. The Papp at 5 h, 100 μM in data set [1] (setting [3]) was 0.89 ± 0.71 ×10⁻⁶ cm/s. Moreover, in data set [1] (read-out: Permeable), the Papp at 5 h, 100 μM was no more than 1.5 ×10⁻⁶ cm/s. Also, the ED50 (commonly the midpoint of the dose-response relation) with formalin test in mice (Mus musculus, mice, II (late) phase, method of Litchfield and Wilcoxon, read-out: calculated ED50 in the formalin test) is 9.1 mg/kg. For the same molecule, the “effect, times greater than that of the reference compound (ASA)” value with formalin test in mice (formalin test, from ED50) is given as “approximately 13.8 times”. Moreover, in the data set with formalin test in mice (mice, 10 mg/kg ip), the “Early Phase Inhibition (%)” value was 0%, the “Late Phase Inhibition (%)” value is 48.7%, the “Licking of the Hind Paw Early Phase (0–5 min) Mean ± SEM” value (“Licking … (0–5 min) Mean ± SEM” below) was determined as 43.2 ± 6.6 s and the “Licking of the Hind Paw Late Phase (15–30 min) Mean ± SEM” value (from here on “Licking … (15–30 min) Mean ± SEM”) is 61.2 ± 6.4 ^b sec. Besides, in the data set with formalin test in mice (mice, 20 mg/kg ip), the “Early Phase Inhibition (%)” value turned out to be 24.5%, the “Late Phase Inhibition (%)” value came to 82.9%, the “Licking … (0–5 min) Mean ± SEM” value came out at 31.4 ± 5.0 s and the “Licking … (15–30 min) Mean ± SEM” value is listed as 20.4 ± 10.6 ^d sec. In the data set on formalin test in mice (mice, 40 mg/kg ip), the “Early Phase Inhibition (%)” value turned out to be 26.0%, the “Late Phase Inhibition (%)” value came out at 89.7%, the “Licking … (0–5 min) Mean ± SEM” value was 30.8 ± 6.7 s and the “Licking … (15–30 min) Mean ± SEM” value is listed as 12.2 ± 3.3 ^d sec.
Take `C#CCn1c(=O)c2c(nc(NCc3c(F)cccc3Cl)n2C)n(C)c1=O` [compound 22, 8-((2-Chloro-6-fluorobenzyl)amino)-3,7-dimethyl-1-(prop-2-yn-1-yl)-3,7-dihydro-1H-purine-2,6-dione]: on human adenosine A1R, the Ki was 130 ± 34 nM. Besides, in data set [1], the “Drug Retention” value was 68.62%. For the same molecule, in data set [1] (setting [2]), the “Pe ± SD” value is given as 0.37 10^−6 cm/s. Moreover, the results for the Papp at 5 h, 100 μM in data set [1] (setting [3]) and in data set [1] (read-out: Permeable) were 0.37 ± 0.01 ×10⁻⁶ cm/s and no more than 1.5 ×10⁻⁶ cm/s, respectively. In addition, the “Early Phase Inhibition (%)” value in the data set with formalin test in mice (mice, 10 mg/kg ip) was determined as 0%; with formalin test in mice (mice, 40 mg/kg ip) it was 5.8%. Besides, the “Late Phase Inhibition (%)” value was 22.8% in the data set with formalin test in mice (mice, 10 mg/kg ip) and 48.0% in the data set on formalin test in mice (mice, 40 mg/kg ip). Besides, the “Licking … (0–5 min) Mean ± SEM” value with formalin test in mice (mice, 10 mg/kg ip) is 41.6 ± 5.4 s; in the data set with formalin test in mice (mice, 20 mg/kg ip) it was 41.0 ± 8.6 s; in the data set with formalin test in mice (mice, 40 mg/kg ip) it was 39.2 ± 1.3 s. The “Licking … (15–30 min) Mean ± SEM” value in the data set on formalin test in mice (mice, 10 mg/kg ip) was 92.2 ± 6.5 s; in the data set with formalin test in mice (mice, 20 mg/kg ip), 78.2 ± 20.3 s; with formalin test in mice (mice, 40 mg/kg ip), 62.0 ± 5.2 ^b sec.
For the molecule `C#CCn1c(=O)c2c(nc(NCc3ccccc3Cl)n2C)n(C)c1=O` [compound 19, 8-((2-Chlorobenzyl)amino)-3,7-dimethyl-1-(prop-2-yn-1-yl)-3,7-dihydro-1H-purine-2,6-dione], the Ki on human adenosine A1R came out at 407 ± 75 nM. Also, the “Drug Retention” value in data set [1] is given as 51.78%. The “Pe ± SD” value in data set [1] (setting [2]) is recorded as “greater than 1.5 10^−6 cm/s”. In data set [1] (setting [3]), the Papp at 5 h, 100 μM is 3.13 ± 0.82 ×10⁻⁶ cm/s. The Papp at 5 h, 100 μM in data set [1] (read-out: Permeable) was no less than 1.5 ×10⁻⁶ cm/s. In addition, in the data set on formalin test in mice (mice, 10 mg/kg ip), the “Late Phase Inhibition (%)” value is recorded as 26.0%, the “Licking … (0–5 min) Mean ± SEM” value is 41.8 ± 5.5 s and the “Licking … (15–30 min) Mean ± SEM” value turned out to be 88.4 ± 5.6 s. Further, in the data set with formalin test in mice (mice, 20 mg/kg ip), the “Early Phase Inhibition (%)” value amounted to 0%, the “Late Phase Inhibition (%)” value was 35.7%, the “Licking … (0–5 min) Mean ± SEM” value amounted to 48.2 ± 10.0 s and the “Licking … (15–30 min) Mean ± SEM” value stood at 76.8 ± 26.4 s. Moreover, in the data set with formalin test in mice (mice, 40 mg/kg ip), the “Early Phase Inhibition (%)” value was 0%, the “Late Phase Inhibition (%)” value is 47.2%, the “Licking … (0–5 min) Mean ± SEM” value was determined as 42.6 ± 2.8 s and the “Licking … (15–30 min) Mean ± SEM” value is 63.0 ± 6.6 ^b sec.
